Data: PMC10709440, “High-throughput ligand profile characterization in novel cell lines expressing seven heterologous insect olfactory receptors for the detection of volatile plant biomarkers” (Scientific Reports, 2023)

Tests used:
Drosophila OR13a = biological target: T1, Drosophila OR13a (Drosophila melanogaster, UniProt Q9VXL0); assay: Calcium ion fluorescence (GCaMP6) assay, OR13a stable HEK293 cell line; type: cell-based; conditions: for activation at 1 µM: HEK293, read-out: OR13a Average response (VUAA1-normalized), 1 μM VOC; for activation at 10 µM: HEK293, read-out: OR13a Average response (VUAA1-normalized), 10 μM VOC; for OR13a response (VUAA1-normalized) at 1 μM / OR13a response (VUAA1-normalized) at 10 μM / OR13a response (VUAA1-normalized) at 100 μM: OR13a cell line; for OR13a response (VUAA1-normalized) at 1 μM: VOC concentration 1 μM; for OR13a response (VUAA1-normalized) at 10 μM: VOC concentration 10 μM; for OR13a response (VUAA1-normalized) at 100 μM: VOC concentration 100 μM; for DF norm AVERAGE OR13a: 0.05 threshold, values below shown as 0
T1 construct: expressed in transfected cells
T1 sequence (Q9VXL0 1-418): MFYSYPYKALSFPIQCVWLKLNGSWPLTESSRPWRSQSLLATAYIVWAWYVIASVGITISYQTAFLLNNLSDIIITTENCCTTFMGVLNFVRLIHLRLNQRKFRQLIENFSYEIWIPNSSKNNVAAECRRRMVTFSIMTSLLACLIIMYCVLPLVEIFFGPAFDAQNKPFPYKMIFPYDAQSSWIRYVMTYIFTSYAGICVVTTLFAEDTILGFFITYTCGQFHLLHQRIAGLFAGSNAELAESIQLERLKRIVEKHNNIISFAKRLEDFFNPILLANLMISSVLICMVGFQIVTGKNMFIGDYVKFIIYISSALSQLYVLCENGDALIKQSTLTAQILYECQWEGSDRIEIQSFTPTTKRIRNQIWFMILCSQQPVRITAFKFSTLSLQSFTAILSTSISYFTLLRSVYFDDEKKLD
T1 sequence (Q9VNB5 1-486 partner): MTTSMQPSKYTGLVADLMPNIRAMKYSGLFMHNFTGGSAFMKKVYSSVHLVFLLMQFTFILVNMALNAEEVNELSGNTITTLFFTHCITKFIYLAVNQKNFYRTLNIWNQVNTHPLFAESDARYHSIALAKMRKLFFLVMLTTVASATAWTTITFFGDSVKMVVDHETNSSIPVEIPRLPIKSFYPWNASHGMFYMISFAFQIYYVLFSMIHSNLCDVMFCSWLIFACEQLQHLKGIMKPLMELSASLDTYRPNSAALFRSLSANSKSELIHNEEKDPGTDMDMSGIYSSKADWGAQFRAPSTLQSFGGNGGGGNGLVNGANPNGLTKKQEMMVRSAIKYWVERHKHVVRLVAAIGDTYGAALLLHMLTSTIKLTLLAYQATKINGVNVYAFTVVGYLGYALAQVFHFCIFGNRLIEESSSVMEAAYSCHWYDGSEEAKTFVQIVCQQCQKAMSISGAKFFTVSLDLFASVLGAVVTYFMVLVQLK
In short: (§1)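 HEK293 lines stably expressing each Drosophila OR with GCaMP6, doxycycline-induced (1 μg/mL) 48 or 72 h. Fluorescence recorded 5 s baseline then 30 s after VOC injection at pH 7.3; ΔF=(FMAX−F0)/F0, normalized to 50 µM VUAA1 response per line, triplicate wells averaged; concentration series 0.01–100 μM.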

Drosophila OR71a = biological target: T2, Drosophila OR71a (Drosophila melanogaster, UniProt Q9VUK5); assay: Calcium ion fluorescence (GCaMP6) assay, OR71a stable HEK293 cell line; type: cell-based; conditions: for OR71a response (VUAA1-normalized) at 1 μM / OR71a response (VUAA1-normalized) at 10 μM / OR71a response (VUAA1-normalized) at 100 μM / Average response: OR71a cell line; for OR71a response (VUAA1-normalized) at 1 μM: VOC concentration 1 μM; for OR71a response (VUAA1-normalized) at 10 μM: VOC concentration 10 μM; for OR71a response (VUAA1-normalized) at 100 μM: VOC concentration 100 μM; for Average response: VUAA1-normalized response, mean of biological replicates; for DF norm AVERAGE OR71a: 0.05 threshold, values below shown as 0
T2 construct: expressed in transfected cells
T2 sequence (Q9VUK5 1-378): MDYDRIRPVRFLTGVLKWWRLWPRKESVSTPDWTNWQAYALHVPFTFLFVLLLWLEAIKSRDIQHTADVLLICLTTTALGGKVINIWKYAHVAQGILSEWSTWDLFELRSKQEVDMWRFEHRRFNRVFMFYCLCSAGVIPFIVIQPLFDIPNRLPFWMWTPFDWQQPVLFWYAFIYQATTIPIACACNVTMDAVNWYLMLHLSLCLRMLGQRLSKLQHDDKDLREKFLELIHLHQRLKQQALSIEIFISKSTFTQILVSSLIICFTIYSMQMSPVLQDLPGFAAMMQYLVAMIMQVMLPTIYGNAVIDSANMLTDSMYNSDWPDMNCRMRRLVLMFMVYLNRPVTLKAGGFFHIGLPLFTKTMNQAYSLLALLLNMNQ
T2 sequence (Q9VNB5 1-486 partner): T1 sequence (Q9VNB5 1-486 partner)
In short: as §1

[1] = 50 μM VUAA1 = 1, responses not exceeding 0.05 considered 0
[2] = ligand concentration 1 (unit not given)
[3] = ligand concentration 10 (unit not given)
[4] = ligand concentration 100 (unit not given)

Structure (SMILES)	activation at 1 µM (Drosophila OR13a; [1]) [%]	activation at 10 µM (Drosophila OR13a; [1]) [%]	activation at 100 µM (Drosophila OR13a; HEK293, read-out: OR13a Average response (VUAA1-normalized), 100 μM VOC, 50 μM VUAA1 = 1, responses not exceeding 0.05 considered 0) [%]	OR13a response (VUAA1-normalized) at 1 μM (Drosophila OR13a)	OR13a response (VUAA1-normalized) at 10 μM (Drosophila OR13a)	OR13a response (VUAA1-normalized) at 100 μM (Drosophila OR13a)	DF norm AVERAGE OR13a (Drosophila OR13a; [2])	DF norm AVERAGE OR13a (Drosophila OR13a; [3])	DF norm AVERAGE OR13a (Drosophila OR13a; [4])	OR71a response (VUAA1-normalized) at 1 μM (Drosophila OR71a)	OR71a response (VUAA1-normalized) at 10 μM (Drosophila OR71a)	OR71a response (VUAA1-normalized) at 100 μM (Drosophila OR71a)	Average response (Drosophila OR71a; cc. 1 µM)	Average response (Drosophila OR71a; cc. 10 µM)	Average response (Drosophila OR71a; cc. 100 µM)	DF norm AVERAGE OR71a (Drosophila OR71a; [2])	DF norm AVERAGE OR71a (Drosophila OR71a; [3])	DF norm AVERAGE OR71a (Drosophila OR71a; [4])
Cc1ccccc1 [toluene]	0	0	0	0.00	0.00	0.00	0	0	0	0.00	0.00	0.00	0.00	0.00	0.00	0	0	0
C=Cc1ccccc1 [styrene]	3	0	–	0.00	0.00	0.00	0	0	0	0.00	0.00	0.00	0.027	0.0458	0.00724	0	0	0
